What is called GI50 is the concentration at which growth is held to half of that of the control. For orientation: TGI means the concentration giving total growth inhibition. A lower TGI goes with greater sensitivity of the cells.

Test systems include A549 NSCLC; HCT-116 colon; NCI-H460 lung; OVCAR-8 ovarian; PC-3 prostate; SF-268 CNS; SK-OV-3 ovarian; SR leukemia; TK-10 renal; UACC-62 melanoma.
What all share (experiment): DTP human tumour cell line panel, 48 h

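Values below derive from 48-hour exposures of cells grown in 96-well plates, with endpoints linearly interpolated between the two concentrations bracketing the appropriate inhibition level. GI50 marks 50% less growth. The concentration for full growth arrest is given as TGI.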 Some results are limits rather than exact numbers.

As to `CC12C=CC(C)(O1)C1C2c2ccccc2S1(=O)=O` (stereo unspecified), the GI50 with A549 NSCLC was greater than 100 µM; in the test with HCT-116 colon, 47.9 µM; with NCI-H460 lung it was greater than 100 µM; in the test on OVCAR-8 ovarian, greater than 100 µM; in the test with PC-3 prostate, 66.8 µM; with SF-268 CNS, 68 µM. The GI50 was greater than 100 µM in the test on SK-OV-3 ovarian, 15.6 µM with SR leukemia, greater than 100 µM in the test with TK-10 renal and greater than 100 µM in the test with UACC-62 melanoma. Moreover, the TGI in the test on A549 NSCLC, in the test on HCT-116 colon, in the test with NCI-H460 lung, with OVCAR-8 ovarian, with PC-3 prostate and with SF-268 CNS was greater than 100 µM throughout. Further, the TGI in the test with SK-OV-3 ovarian, in the test with SR leukemia, in the test with TK-10 renal and in the test on UACC-62 melanoma was greater than 100 µM each time.

Consider `COC(=O)[C@]12CC[C@@H](C)[C@H](C)[C@@H]1C1=CC[C@@H]3[C@@]4(C)C(c5ncon5)=C[C@@](C)(CO)C4=CC[C@@]3(C)[C@]1(C)CC2`, for which the GI50 was 4.48 µM with A549 NSCLC; 1.68 µM with HCT-116 colon; 1.97 µM in the test with NCI-H460 lung; 3.41 µM in the test on OVCAR-8 ovarian; 2.1 µM in the test with PC-3 prostate; 2.34 µM in the test on SF-268 CNS. Also, the GI50 is 4.49 µM with SK-OV-3 ovarian, 1.55 µM with SR leukemia, 2.17 µM with TK-10 renal and 1.89 µM in the test on UACC-62 melanoma. Besides, the TGI worked out at 15.5 µM with A549 NSCLC; 3.2 µM in the test with HCT-116 colon; 3.95 µM in the test on NCI-H460 lung; 10.2 µM in the test on OVCAR-8 ovarian; 4.7 µM with PC-3 prostate; 6.89 µM in the test with SF-268 CNS. The TGI amounted to 15.5 µM in the test on SK-OV-3 ovarian, 4.21 µM with SR leukemia, 5.36 µM in the test on TK-10 renal and 4.02 µM in the test with UACC-62 melanoma.

On to `COC(=O)c1[nH]nc(-c2ccccc2)c1N1CCCCC1`, for which the GI50 with A549 NSCLC was 43.6 µM; in the test on NCI-H460 lung, 38.1 µM; with OVCAR-8 ovarian it was 44.2 µM; with PC-3 prostate, 38.9 µM; in the test with SF-268 CNS, 20.8 µM; in the test with SK-OV-3 ovarian, 36.4 µM. Moreover, the GI50 is 46.5 µM in the test on SR leukemia, 32.5 µM with TK-10 renal and 17.3 µM with UACC-62 melanoma. For the same compound, the TGI was greater than 100 µM with A549 NSCLC; greater than 100 µM in the test with NCI-H460 lung; greater than 100 µM with OVCAR-8 ovarian; greater than 100 µM in the test on PC-3 prostate; 53.5 µM in the test on SF-268 CNS; greater than 100 µM in the test on SK-OV-3 ovarian. Further, the TGI in the test with SR leukemia was greater than 100 µM; in the test on TK-10 renal it was 68.2 µM; in the test on UACC-62 melanoma, 49.2 µM.

Turning to `c1ccc(-c2n(Cc3ccc4ccccc4n3)c3ccccc3[n+]2Cc2ccc3ccccc3n2)cc1`, the GI50 was 0.346 µM with A549 NSCLC; 0.247 µM in the test with HCT-116 colon; 0.367 µM with NCI-H460 lung; 0.341 µM with OVCAR-8 ovarian; 0.23 µM in the test on PC-3 prostate; 0.333 µM in the test with SF-268 CNS. For the same compound, the GI50 is 0.282 µM in the test on SK-OV-3 ovarian, 0.357 µM with SR leukemia, 0.426 µM in the test with TK-10 renal and 0.306 µM in the test with UACC-62 melanoma. In addition, the TGI in the test on A549 NSCLC was determined as 2.06 µM; with HCT-116 colon, 1.19 µM; with NCI-H460 lung it was 1.36 µM; in the test on OVCAR-8 ovarian it was 1.46 µM; with PC-3 prostate it was 1.35 µM; with SF-268 CNS, 1.35 µM. Also, the TGI with SK-OV-3 ovarian is 1.18 µM; with SR leukemia, 2.42 µM; in the test with TK-10 renal it was 1.91 µM; with UACC-62 melanoma, 1.24 µM.

As to `O=C(Cc1ccccc1)Nc1nnc(CCSCCc2nnc(NC(=O)Cc3ccccc3)s2)s1`, the GI50 in the test on A549 NSCLC is 0.541 µM; with HCT-116 colon it was 59.8 µM; in the test with NCI-H460 lung it was 14.5 µM; with OVCAR-8 ovarian, 6.12 µM; in the test with PC-3 prostate it was 4.55 µM; in the test on SF-268 CNS, 12.3 µM. Also, the GI50 is 18.7 µM in the test with SK-OV-3 ovarian, 13.9 µM in the test on SR leukemia, 35.6 µM in the test on TK-10 renal and 19.2 µM in the test on UACC-62 melanoma. For the same compound, the TGI is greater than 100 µM in the test with A549 NSCLC; greater than 100 µM in the test on HCT-116 colon; greater than 100 µM with NCI-H460 lung; greater than 100 µM in the test on OVCAR-8 ovarian; greater than 100 µM with PC-3 prostate; 62 µM with SF-268 CNS. The TGI with SK-OV-3 ovarian is 71.3 µM; in the test with SR leukemia, 32.6 µM; with TK-10 renal, greater than 100 µM; with UACC-62 melanoma, greater than 100 µM.

As for `O=C1C2C(C(=O)[N]1[Hg][c]1ccccc1)C1(Cl)C(Cl)=C(Cl)C2(Cl)C1(Cl)Cl` (stereo unspecified), the GI50 in the test with A549 NSCLC was 9.84 µM; with HCT-116 colon, 1.54 µM; in the test on NCI-H460 lung it was 2.61 µM; in the test with PC-3 prostate, 6.42 µM; with SF-268 CNS, 1.64 µM; in the test with SK-OV-3 ovarian, 1.87 µM. For the same compound, the GI50 in the test with SR leukemia was 0.41 µM; in the test with TK-10 renal, 1.51 µM; in the test with UACC-62 melanoma it was 1.37 µM. In addition, the TGI is 25 µM with A549 NSCLC; 2.87 µM in the test on HCT-116 colon; 12.4 µM in the test on NCI-H460 lung; 23.7 µM in the test on PC-3 prostate; 3.71 µM in the test on SF-268 CNS; 5.17 µM in the test on SK-OV-3 ovarian. Further, the TGI with SR leukemia was determined as 3.46 µM; in the test on TK-10 renal, 2.86 µM; in the test with UACC-62 melanoma, 2.72 µM.

`c1ccc(Cn2cc3c(c2)-c2oncc2CC3)cc1`: the GI50 in the test on A549 NSCLC is 1.48 µM; in the test with HCT-116 colon, 0.408 µM; in the test on NCI-H460 lung, 0.402 µM; in the test with OVCAR-8 ovarian it was 2.79 µM; in the test on PC-3 prostate it was 1.99 µM; with SF-268 CNS it was 1.78 µM. Besides, the GI50 is 0.767 µM in the test with SK-OV-3 ovarian, 0.31 µM in the test with SR leukemia, 2.98 µM in the test on TK-10 renal and 0.723 µM in the test with UACC-62 melanoma. Also, the TGI was 97.7 µM in the test on A549 NSCLC; greater than 100 µM in the test with HCT-116 colon; 7.5 µM in the test on NCI-H460 lung; greater than 39.1 µM with OVCAR-8 ovarian; greater than 100 µM with PC-3 prostate; 38.9 µM in the test with SF-268 CNS. The TGI in the test on SK-OV-3 ovarian was 26.5 µM; in the test on SR leukemia, 4.34 µM; in the test with TK-10 renal, greater than 71.5 µM; in the test with UACC-62 melanoma, 97.3 µM.

The record behind these values is PubChem BioAssay (NCI).
